Target: T1, UDP-3-O-acyl-N-acetylglucosamine deacetylase (Pseudomonas aeruginosa (strain ATCC 15692 / PAO1 / 1C / PRS 101 / LMG12228), UniProt P47205)
T1 sequence (P47205 whole entry): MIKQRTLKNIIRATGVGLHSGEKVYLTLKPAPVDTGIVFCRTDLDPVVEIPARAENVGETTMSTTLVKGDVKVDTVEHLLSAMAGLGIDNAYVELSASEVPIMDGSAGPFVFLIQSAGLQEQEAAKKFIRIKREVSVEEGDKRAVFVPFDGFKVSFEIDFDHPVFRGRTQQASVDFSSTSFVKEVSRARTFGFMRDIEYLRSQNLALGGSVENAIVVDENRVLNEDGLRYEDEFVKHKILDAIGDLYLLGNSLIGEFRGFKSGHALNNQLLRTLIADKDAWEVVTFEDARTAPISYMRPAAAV
Test: At the end of 1 hour, 5 ul of 1N HCl was added to stop the enzyme reaction; the plates were centrifuged, and then processed with the BioTrove Rapidfire HTMS Mass Spectrometry System.

SMILES | IC50 [nM]
CC(CCc1ccc(OC2CCCCC2)cc1)(C(=O)NO)S(C)(=O)=O (configuration not stated) | 0.753
CCC(CC)COc1ccc(CCC(C)(C(=O)NO)S(C)(=O)=O)cc1 (configuration not stated) | 1.29
CCC(c1ccccc1)c1noc(COc2ccc(CCC(C)(C(=O)NO)S(C)(=O)=O)cc2)n1 (configuration not stated) | 20.5
CC(CCc1ccc(OCc2nc(-c3cccc(F)c3)no2)cc1)(C(=O)NO)S(C)(=O)=O (configuration not stated) | 3.81
CC(CCc1ccc(OCCCOCc2ccccc2)cc1)(C(=O)NO)S(C)(=O)=O (configuration not stated) | 21.1
Cc1ncccc1COc1ccc(CCC(C)(C(=O)NO)S(C)(=O)=O)cc1 (configuration not stated) | 5.59
CC(CCc1ccc(OCC2CC2)cc1)(C(=O)NO)S(C)(=O)=O (configuration not stated) | 10.5
CC(CCc1ccc(OCCOc2ccccc2)cc1)(C(=O)NO)S(C)(=O)=O (configuration not stated) | 1.52
CC(CCc1ccc(OCc2ccc(F)cc2C(F)(F)F)cc1)(C(=O)NO)S(C)(=O)=O (configuration not stated) | 2.36
CC(CCc1ccc(OCc2cccc(Cl)c2)cc1)(C(=O)NO)S(C)(=O)=O (configuration not stated) | 1.32
CCCCCCOc1ccc(CCC(C)(C(=O)NO)S(C)(=O)=O)cc1 (configuration not stated) | 6.31
CC(CCc1ccc(OCc2nc(-c3cccc(F)c3F)no2)cc1)(C(=O)NO)S(C)(=O)=O (configuration not stated) | 5.31
Cc1ccc(C)c(COc2ccc(CCC(C)(C(=O)NO)S(C)(=O)=O)cc2)c1 (configuration not stated) | 4.25
CC(CCc1ccc(OCc2nc(-c3cc(F)cc(F)c3)no2)cc1)(C(=O)NO)S(C)(=O)=O (configuration not stated) | 5.81
CC(CCc1ccc(OCc2nc(Cc3cc(F)ccc3F)no2)cc1)(C(=O)NO)S(C)(=O)=O (configuration not stated) | 0.714
Cc1cc(C)cc(COc2ccc(CCC(C)(C(=O)NO)S(C)(=O)=O)cc2)c1 (configuration not stated) | 4.5
COc1ccc(F)c(-c2noc(COc3ccc(CCC(C)(C(=O)NO)S(C)(=O)=O)cc3)n2)c1 (configuration not stated) | 6.39
Cc1cccc(COc2ccc(CCC(C)(C(=O)NO)S(C)(=O)=O)cc2)c1F (configuration not stated) | 0.525
Cc1ccc(COc2ccc(CCC(C)(C(=O)NO)S(C)(=O)=O)cc2)cc1 (configuration not stated) | 1.02

SMILES | IC50 [nM]
CC(CCc1ccc(OCC2CCC2)cc1)(C(=O)NO)S(C)(=O)=O (configuration not stated) | 3.28
CC(C)CCCOc1ccc(CCC(C)(C(=O)NO)S(C)(=O)=O)cc1 (configuration not stated) | 3.22
CC(CCc1ccc(OCc2cccc(F)c2)cc1)(C(=O)NO)S(C)(=O)=O (configuration not stated) | 0.834
Cc1ccc(-c2noc(COc3ccc(CCC(C)(C(=O)NO)S(C)(=O)=O)cc3)n2)cc1 (configuration not stated) | 3.48
Cc1ccc(COc2ccc(CCC(C)(C(=O)NO)S(C)(=O)=O)cc2)cn1 (configuration not stated) | 5.96
CC(CCc1ccc(OCCc2ccccc2)cc1)(C(=O)NO)S(C)(=O)=O (configuration not stated) | 4.03
CC(CCc1ccc(OCc2nc(C3CCCC3)no2)cc1)(C(=O)NO)S(C)(=O)=O (configuration not stated) | 7.2
CC(CCc1ccc(OCc2cccc(OC(F)(F)F)c2)cc1)(C(=O)NO)S(C)(=O)=O (configuration not stated) | 2.71
CC(CCc1ccc(OCc2cc(C#N)ccc2F)cc1)(C(=O)NO)S(C)(=O)=O (configuration not stated) | 1.36
CC(CCc1ccc(OCc2nc3ccccc3s2)cc1)(C(=O)NO)S(C)(=O)=O (configuration not stated) | 0.651
CC(CCc1ccc(OCc2ccc3ccccc3n2)cc1)(C(=O)NO)S(C)(=O)=O (configuration not stated) | 13.9
CC(CCc1ccc(OCCc2ccncc2)cc1)(C(=O)NO)S(C)(=O)=O (configuration not stated) | 13.7
CC(CCc1ccc(OCCC2CCCC2)cc1)(C(=O)NO)S(C)(=O)=O (configuration not stated) | 1.27
CC(CCc1ccc(OCCCC2CCCC2)cc1)(C(=O)NO)S(C)(=O)=O (configuration not stated) | 2.55
CC(CCc1ccc(OCCC2CCCCC2)cc1)(C(=O)NO)S(C)(=O)=O (configuration not stated) | 2.79
CC(CCc1ccc(OCCCC2CCCCC2)cc1)(C(=O)NO)S(C)(=O)=O (configuration not stated) | 4.56
CC(CCc1ccc(OCCCc2ccccc2)cc1)(C(=O)NO)S(C)(=O)=O (configuration not stated) | 10.2
CC(CCc1ccc(OCCC2CC2)cc1)(C(=O)NO)S(C)(=O)=O (racemic) | 1.36
